From US11981658B2, “Substituted aminopyridine compounds as EGFR inhibitors” (YUHAN CORPORATION, priority 2021, dated 2024)
Where two headings read alike, the source gives them in different places.

How the values were obtained:
[1] = biological target: EGFR Del19/C797S (Homo sapiens, UniProt P00533, C797S/DEL746-750); assay: Biochemical EGFR kinase inhibition assay (Lance Ultra TR-FRET), double mutant del19/C797S
Method in brief: (§1)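 In this biochemical assay, phosphorylation after a one-hour room-temperature reaction was detected with europium-labelled anti-phosphopeptide antibody at 2 nM final concentration.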

[2] = biological target: EGFR L858R/C797S (Homo sapiens, UniProt P00533, C797S/L858R); assay: Biochemical EGFR kinase inhibition assay (Lance Ultra TR-FRET), double mutant L858R/C797S
Method in brief: as §1

[3] = biological target: EGFR wildtype (WT) (Homo sapiens, UniProt P00533); assay: Biochemical EGFR kinase inhibition assay (Lance Ultra TR-FRET), wildtype
Sequence of EGFR wildtype (WT) (P00533 25-1210): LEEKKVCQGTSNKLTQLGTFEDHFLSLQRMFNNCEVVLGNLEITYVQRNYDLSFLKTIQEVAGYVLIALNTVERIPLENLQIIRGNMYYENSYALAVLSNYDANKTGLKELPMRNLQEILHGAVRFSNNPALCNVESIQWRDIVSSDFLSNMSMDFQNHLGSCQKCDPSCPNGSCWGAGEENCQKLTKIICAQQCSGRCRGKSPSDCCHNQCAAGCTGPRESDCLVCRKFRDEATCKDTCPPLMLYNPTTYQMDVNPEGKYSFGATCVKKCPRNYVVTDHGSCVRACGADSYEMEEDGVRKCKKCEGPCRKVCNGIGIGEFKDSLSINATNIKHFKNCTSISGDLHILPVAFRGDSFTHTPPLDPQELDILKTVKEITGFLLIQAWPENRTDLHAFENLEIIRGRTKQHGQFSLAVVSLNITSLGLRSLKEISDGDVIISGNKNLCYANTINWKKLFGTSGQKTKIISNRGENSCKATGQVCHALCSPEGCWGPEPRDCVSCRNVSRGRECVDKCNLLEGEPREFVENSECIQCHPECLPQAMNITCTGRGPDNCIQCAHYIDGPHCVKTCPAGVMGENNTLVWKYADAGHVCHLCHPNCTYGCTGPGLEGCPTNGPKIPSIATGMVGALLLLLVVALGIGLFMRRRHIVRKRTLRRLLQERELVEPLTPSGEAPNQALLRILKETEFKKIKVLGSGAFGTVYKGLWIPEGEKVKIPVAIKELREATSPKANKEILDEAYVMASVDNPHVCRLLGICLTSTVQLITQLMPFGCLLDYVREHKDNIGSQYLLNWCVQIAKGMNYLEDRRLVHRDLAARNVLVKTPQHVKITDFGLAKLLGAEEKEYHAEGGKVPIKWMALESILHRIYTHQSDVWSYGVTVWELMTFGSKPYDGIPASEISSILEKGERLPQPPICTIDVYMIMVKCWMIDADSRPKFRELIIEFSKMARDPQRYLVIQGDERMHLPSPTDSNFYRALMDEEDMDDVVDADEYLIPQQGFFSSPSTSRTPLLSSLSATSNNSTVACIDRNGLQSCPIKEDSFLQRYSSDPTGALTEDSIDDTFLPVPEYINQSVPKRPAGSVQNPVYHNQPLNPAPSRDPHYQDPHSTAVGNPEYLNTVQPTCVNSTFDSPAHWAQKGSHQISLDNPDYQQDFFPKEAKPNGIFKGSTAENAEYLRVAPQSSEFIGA
Method in brief: as §1

[4] = biological target: EGFR L858R/T790M/C797S (Homo sapiens, UniProt P00533, C797S/L858R/T790M); assay: Biochemical EGFR kinase inhibition assay (Lance Ultra TR-FRET), triple mutant L858R/T790M/C797S
Sequence of EGFR L858R/T790M/C797S (P00533 25-1210 T790M/C797S/L858R): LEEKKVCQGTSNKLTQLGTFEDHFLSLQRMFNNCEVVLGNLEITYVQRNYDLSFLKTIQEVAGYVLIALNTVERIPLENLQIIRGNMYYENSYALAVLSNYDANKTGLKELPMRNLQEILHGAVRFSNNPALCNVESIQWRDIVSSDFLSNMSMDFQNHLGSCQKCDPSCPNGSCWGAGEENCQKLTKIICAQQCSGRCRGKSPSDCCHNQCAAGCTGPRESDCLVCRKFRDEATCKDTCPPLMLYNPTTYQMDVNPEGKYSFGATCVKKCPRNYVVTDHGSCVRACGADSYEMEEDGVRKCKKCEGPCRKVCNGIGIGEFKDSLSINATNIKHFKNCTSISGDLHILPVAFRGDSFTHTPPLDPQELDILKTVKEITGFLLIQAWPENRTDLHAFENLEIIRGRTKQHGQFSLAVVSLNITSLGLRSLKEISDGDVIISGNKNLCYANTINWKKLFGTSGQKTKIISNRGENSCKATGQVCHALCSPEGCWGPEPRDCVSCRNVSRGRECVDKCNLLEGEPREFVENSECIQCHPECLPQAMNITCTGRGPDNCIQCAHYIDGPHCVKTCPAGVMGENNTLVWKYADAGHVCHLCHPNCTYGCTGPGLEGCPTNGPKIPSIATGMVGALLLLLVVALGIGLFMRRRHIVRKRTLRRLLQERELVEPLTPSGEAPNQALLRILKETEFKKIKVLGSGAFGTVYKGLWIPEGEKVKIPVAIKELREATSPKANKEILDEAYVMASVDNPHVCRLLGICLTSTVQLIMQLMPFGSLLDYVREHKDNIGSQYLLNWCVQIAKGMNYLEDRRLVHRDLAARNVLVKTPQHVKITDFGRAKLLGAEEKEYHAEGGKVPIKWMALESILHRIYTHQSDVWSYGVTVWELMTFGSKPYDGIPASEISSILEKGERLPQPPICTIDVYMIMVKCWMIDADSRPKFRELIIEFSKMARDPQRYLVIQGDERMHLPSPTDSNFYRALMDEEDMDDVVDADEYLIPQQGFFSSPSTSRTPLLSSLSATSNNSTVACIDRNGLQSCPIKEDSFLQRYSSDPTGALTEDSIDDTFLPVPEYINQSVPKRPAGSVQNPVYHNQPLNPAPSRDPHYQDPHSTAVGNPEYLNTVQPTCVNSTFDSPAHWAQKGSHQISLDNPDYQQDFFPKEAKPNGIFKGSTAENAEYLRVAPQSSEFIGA
Method in brief: as §1

[5] = biological target: EGFR Del19/T790M/C797S (Homo sapiens, UniProt P00533, C797S/DEL746-750/T790M); assay: Biochemical EGFR kinase inhibition assay (Lance Ultra TR-FRET), triple mutant del19/T790M/C797S
Sequence of EGFR Del19/T790M/C797S (P00533 with tags, fused parts or gaps DEL746-750/T790M/C797S): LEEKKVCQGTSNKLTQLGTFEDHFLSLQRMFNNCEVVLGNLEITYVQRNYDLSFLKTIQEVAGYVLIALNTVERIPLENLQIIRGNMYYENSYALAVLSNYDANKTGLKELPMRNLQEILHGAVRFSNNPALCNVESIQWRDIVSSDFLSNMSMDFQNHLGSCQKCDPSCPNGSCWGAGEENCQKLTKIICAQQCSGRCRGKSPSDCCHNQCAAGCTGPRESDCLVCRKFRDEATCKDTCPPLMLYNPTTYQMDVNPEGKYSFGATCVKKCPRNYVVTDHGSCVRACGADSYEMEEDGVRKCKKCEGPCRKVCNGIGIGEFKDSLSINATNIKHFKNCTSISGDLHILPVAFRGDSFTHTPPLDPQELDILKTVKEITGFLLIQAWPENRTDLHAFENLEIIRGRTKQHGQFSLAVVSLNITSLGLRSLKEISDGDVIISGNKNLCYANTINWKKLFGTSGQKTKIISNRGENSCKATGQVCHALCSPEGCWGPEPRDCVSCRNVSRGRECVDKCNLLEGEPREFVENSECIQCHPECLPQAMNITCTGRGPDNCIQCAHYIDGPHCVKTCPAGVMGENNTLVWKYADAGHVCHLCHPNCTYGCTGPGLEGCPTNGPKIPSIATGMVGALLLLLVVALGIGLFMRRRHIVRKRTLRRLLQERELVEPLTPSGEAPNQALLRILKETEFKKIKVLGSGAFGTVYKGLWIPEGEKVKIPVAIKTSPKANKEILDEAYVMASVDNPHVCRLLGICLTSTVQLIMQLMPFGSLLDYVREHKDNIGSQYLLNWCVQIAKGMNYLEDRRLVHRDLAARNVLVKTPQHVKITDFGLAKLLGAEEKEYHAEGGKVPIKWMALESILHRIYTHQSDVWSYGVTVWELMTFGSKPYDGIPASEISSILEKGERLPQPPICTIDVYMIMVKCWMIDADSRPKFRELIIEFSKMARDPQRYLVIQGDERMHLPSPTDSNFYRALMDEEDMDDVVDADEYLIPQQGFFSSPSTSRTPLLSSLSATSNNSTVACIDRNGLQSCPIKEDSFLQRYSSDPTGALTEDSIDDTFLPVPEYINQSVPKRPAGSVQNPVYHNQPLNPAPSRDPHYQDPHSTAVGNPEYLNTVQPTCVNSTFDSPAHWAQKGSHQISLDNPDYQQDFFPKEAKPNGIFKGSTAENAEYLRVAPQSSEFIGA
Method in brief: as §1

[6] = IC50 Del19/C797S (nM), 100 μM ATP
[7] = IC50 L858R/C797S (nM), 100 μM ATP
[8] = IC50 L858R/T790M/C797S (nM), 100 μM ATP
[9] = IC50 Del19/T790M/C797S (nM), 100 μM ATP

Sequence of EGFR Del19/C797S (P00533 with tags, fused parts or gaps DEL746-750/C797S): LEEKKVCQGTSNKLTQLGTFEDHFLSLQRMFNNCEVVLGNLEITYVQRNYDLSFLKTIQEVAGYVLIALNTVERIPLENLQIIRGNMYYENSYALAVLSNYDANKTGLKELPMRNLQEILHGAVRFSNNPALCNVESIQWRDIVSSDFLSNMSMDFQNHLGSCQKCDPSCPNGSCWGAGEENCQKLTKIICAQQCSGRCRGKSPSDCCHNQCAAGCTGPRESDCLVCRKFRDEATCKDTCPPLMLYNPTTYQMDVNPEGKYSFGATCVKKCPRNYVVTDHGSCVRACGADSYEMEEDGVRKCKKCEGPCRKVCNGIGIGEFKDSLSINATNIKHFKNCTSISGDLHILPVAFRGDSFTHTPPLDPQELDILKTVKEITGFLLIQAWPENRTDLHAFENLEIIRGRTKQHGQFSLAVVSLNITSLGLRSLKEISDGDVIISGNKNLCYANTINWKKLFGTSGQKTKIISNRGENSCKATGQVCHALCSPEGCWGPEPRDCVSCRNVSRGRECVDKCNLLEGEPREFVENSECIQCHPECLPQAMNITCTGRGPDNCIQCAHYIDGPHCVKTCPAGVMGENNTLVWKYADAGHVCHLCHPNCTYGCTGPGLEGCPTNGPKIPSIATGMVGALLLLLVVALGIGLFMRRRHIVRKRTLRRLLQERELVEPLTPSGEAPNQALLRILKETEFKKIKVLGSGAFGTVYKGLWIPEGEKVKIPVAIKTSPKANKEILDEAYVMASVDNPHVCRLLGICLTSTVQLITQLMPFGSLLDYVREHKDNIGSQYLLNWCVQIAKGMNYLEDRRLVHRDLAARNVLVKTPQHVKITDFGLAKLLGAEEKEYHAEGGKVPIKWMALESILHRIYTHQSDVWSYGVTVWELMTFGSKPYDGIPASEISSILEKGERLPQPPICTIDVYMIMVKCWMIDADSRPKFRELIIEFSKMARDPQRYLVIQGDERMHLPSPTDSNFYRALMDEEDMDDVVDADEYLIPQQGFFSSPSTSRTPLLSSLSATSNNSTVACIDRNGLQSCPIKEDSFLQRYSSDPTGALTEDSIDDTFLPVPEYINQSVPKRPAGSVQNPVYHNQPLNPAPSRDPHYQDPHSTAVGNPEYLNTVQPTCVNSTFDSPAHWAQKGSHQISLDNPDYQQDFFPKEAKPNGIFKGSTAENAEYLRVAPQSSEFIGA

| Compound | IC50 ([1]; Km ATP, read-out: IC50 Del19/C797S (nM) Km ATP) [nM] | IC50 ([1]; read-out: IC50 Del19/C797S (nM), 100 μM ATP) [nM] | IC50 ([2]; Km ATP, read-out: IC50 L858R/C797S (nM) Km ATP) [nM] | IC50 ([2]; read-out: IC50 L858R/C797S (nM), 100 μM ATP) [nM] | IC50 ([3]; Km ATP, read-out: IC50 WT (nM) Km ATP) [nM] | IC50 ([3]; read-out: IC50 WT (nM), 100 μM ATP) [nM] | IC50 ([4]; Km ATP, read-out: IC50 L858R/T790M/C797S (nM) Km ATP) [nM] | IC50 ([4]; read-out: IC50 L858R/T790M/C797S (nM), 100 μM ATP) [nM] | IC50 ([5]; Km ATP, read-out: IC50 Del19/T790M/C797S (nM) Km ATP) [nM] | IC50 ([5]; read-out: IC50 Del19/T790M/C797S (nM), 100 μM ATP) [nM] | IC50 [1, 6] [nM] | IC50 [2, 7] [nM] | IC50 ([3]; IC50 WT (nM), 100 μM ATP) [nM] | IC50 [4, 8] [nM] | IC50 [5, 9] [nM] |
| --- | --- | --- | --- | --- | --- | --- | --- | --- | --- | --- | --- | --- | --- | --- | --- |
| CN(C)C(=O)Cn1cc(C#Cc2cnc(Nc3ccnc(-c4cnn(S(=O)(=O)C5CC5)c4)n3)cc2N[C@H]2CC[C@@](C)(O)CC2)cn1 [Example 221, 2-(4-((6-((2-(1-(Cyclopropylsulfonyl)-1H-pyrazol-4-yl)pyrimidin-4-yl)amino)-4-(((1s,4s)-4-hydroxy-4-methylcyclohexyl)amino)pyridin-3-yl)ethynyl)-1H-pyrazol-1-yl)-N,N-dimethylacetamide] | 6.3 | 8.4 | 3.8 | 33 | 65 | > 10000 | 0.8 | 2.2 | 2.9 | 2 | – | – | – | – | – |
| Cn1cnc(C#Cc2cnc(Nc3ccnc(-c4cnn(S(=O)(=O)C5CC5)c4)n3)cc2N[C@@H]2CC[C@H](O)C2)c1 [Example 223, (1S,3R)-3-((2-((2-(1-(Cyclopropylsulfonyl)-1H-pyrazol-4-yl)pyrimidin-4-yl)amino)-5-((1-methyl-1H-imidazol-4-yl)ethynyl)pyridin-4-yl)amino)cyclopentan-1-ol] | – | – | – | – | – | – | – | – | – | – | 6.7 | 44.7 | > 10000 | 0.8 | 0.5 |
| Cn1cnc(C#Cc2cnc(Nc3ccnc(-c4cnn(S(=O)(=O)C5CC5)c4)n3)cc2NCC(C)(C)CO)c1 [Example 224, 3-((2-((2-(1-(Cyclopropylsulfonyl)-1H-pyrazol-4-yl)pyrimidin-4-yl)amino)-5-((1-methyl-1H-imidazol-4-yl)ethynyl)pyridin-4-yl)amino)-2,2-dimethylpropan-1-ol] | – | – | – | – | – | – | – | – | – | – | 37.7 | 286 | > 10000 | 26.1 | 1.8 |
| O=S(=O)(C1CC1)n1cc(-c2nccc(Nc3cc(N[C@H]4CCC[C@H](O)C4)c(C#Cc4ccsc4)cn3)n2)cn1 [Example 225, (1 S,3S)-3-((2-((2-(1-(Cyclopropylsulfonyl)-1H-pyrazol-4-yl)pyrimidin-4-yl)amino)-5-(thiophen-3-ylethynyl)pyridin-4-yl)amino)cyclohexan-1-ol] | – | – | – | – | – | – | – | – | – | – | 87.8 | 310 | > 10000 | 12.3 | 6.4 |
| CN1CCN(C2CCN(c3cc(Nc4ccnc(-c5cnn(S(=O)(=O)C6CC6)c5)n4)ncc3C#Cc3ccsc3)CC2)CC1 [Example 226, 2-(1-(Cyclopropylsulfonyl)-1H-pyrazol-4-yl)-N-(4-(4-(4-methylpiperazin-1-yl)piperidin-1-yl)-5-(thiophen-3-ylethynyl)pyridin-2-yl)pyrimidin-4-amine] | – | – | – | – | – | – | – | – | – | – | 5.1 | 43.4 | > 10000 | 1.1 | 1.1 |
| O=S(=O)(C1CC1)n1cc(-c2nccc(Nc3cc(N4CCCC(O)C4)c(C#Cc4ccc(N5CCOCC5)nc4)cn3)n2)cn1 (centres unmarked) [Example 227, 1-(2-((2-(1-(Cyclopropylsulfonyl)-1H-pyrazol-4-yl)pyrimidin-4-yl)amino)-5-((6-morpholinopyridin-3-yl)ethynyl)pyridin-4-yl)piperidin-3-ol] | – | – | – | – | – | – | – | – | – | – | 94.7 | 294 | > 10000 | 18.3 | 4.6 |
| O=S(=O)(C1CC1)n1cc(-c2nccc(Nc3cc(N4CCC[C@H](O)C4)c(C#Cc4ccsc4)cn3)n2)cn1 [Example 228, (S)-1-(2-((2-(1-(Cyclopropylsulfonyl)-1H-pyrazol-4-yl)pyrimidin-4-yl)amino)-5-(thiophen-3-ylethynyl)pyridin-4-yl)piperidin-3-ol] | – | – | – | – | – | – | – | – | – | – | 274 | 494 | > 10000 | 21.8 | 6.2 |
| CC1(C)CN(c2cc(Nc3ccnc(-c4cnn(S(=O)(=O)C5CC5)c4)n3)ncc2C#Cc2ccsc2)CCC1O (centres unmarked) [Example 229, 1-(2-((2-(1-(Cyclopropylsulfonyl)-1H-pyrazol-4-yl)pyrimidin-4-yl)amino)-5-(thiophen-3-ylethynyl)pyridin-4-yl)-3,3-dimethylpiperidin-4-ol] | – | – | – | – | – | – | – | – | – | – | 175 | 368 | > 10000 | 26.9 | 8.9 |
| CC(C)(C#Cc1cnc(Nc2ccnc(-c3cnn(S(=O)(=O)C4CC4)c3)n2)cc1N[C@H]1CC[C@@H](O)CC1)N1CCOCC1 [Example 230, (1s,4s)-4-((2-((2-(1-(Cyclopropylsulfonyl)-1H-pyrazol-4-yl)pyrimidin-4-yl)amino)-5-(3-methyl-3-morpholinobut-1-yn-1-yl)pyridin-4-yl)amino)cyclohexan-1-ol] | – | – | – | – | – | – | – | – | – | – | 1720 | 813 | > 10000 | 18.2 | 5.9 |
